No end group written: not given here.
Key:
EphB6 = target: T1, EphB6 (Homo sapiens, UniProt O15197); assay: Phage clone binding to immobilized EphB6 ectodomain Fc (phage ELISA); conditions: phage clone displaying the peptide
T1 construct: Histidine-tagged EphB ectodomain Fc fusion proteins were incubated overnight
T1 sequence (O15197 32-594 limits assumed): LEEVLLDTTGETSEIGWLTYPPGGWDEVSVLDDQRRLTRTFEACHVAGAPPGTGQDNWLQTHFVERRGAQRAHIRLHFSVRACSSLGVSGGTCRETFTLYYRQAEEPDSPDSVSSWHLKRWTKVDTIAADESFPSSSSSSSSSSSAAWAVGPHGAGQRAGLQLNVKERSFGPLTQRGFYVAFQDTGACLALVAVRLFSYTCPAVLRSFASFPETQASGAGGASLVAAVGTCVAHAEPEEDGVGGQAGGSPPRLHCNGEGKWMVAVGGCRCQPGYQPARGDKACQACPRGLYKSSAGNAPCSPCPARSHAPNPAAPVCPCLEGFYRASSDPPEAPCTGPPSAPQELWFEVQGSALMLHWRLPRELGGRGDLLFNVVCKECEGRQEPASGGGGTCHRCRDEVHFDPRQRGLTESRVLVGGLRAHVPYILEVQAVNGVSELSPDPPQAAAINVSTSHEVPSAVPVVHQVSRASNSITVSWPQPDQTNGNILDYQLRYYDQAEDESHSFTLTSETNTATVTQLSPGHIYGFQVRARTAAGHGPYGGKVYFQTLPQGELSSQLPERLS
Method: Phage binding to Ni-NTA wells coated with 1 μg/ml Eph receptor Fe fusion proteins was quantified using an anti-phage antibody conjugated to horseradish peroxidase (M13 phage detection kit, Amersham Biosciences) with 2,2-azino-bis(3-ethylbenzothiazoline-6-sulfonic acid) as a substrate. The background that was subtracted from the measurements was determined without EphB4 Fc. […] In round 1 of panning, 2×10^11 plaque forming units (PFUs) of the phage library in 100 μl binding buffer were incubated for 1 hour at room temperature in the EphB receptor-coated wells.

EphB3 = target: T2, EphB3 (Homo sapiens, UniProt P54753); assay: Phage clone binding to immobilized EphB3 ectodomain Fc (phage ELISA); conditions: phage clone displaying the peptide
T2 construct: Histidine-tagged EphB ectodomain Fc fusion proteins were incubated overnight
T2 sequence (P54753 34-559 limits assumed): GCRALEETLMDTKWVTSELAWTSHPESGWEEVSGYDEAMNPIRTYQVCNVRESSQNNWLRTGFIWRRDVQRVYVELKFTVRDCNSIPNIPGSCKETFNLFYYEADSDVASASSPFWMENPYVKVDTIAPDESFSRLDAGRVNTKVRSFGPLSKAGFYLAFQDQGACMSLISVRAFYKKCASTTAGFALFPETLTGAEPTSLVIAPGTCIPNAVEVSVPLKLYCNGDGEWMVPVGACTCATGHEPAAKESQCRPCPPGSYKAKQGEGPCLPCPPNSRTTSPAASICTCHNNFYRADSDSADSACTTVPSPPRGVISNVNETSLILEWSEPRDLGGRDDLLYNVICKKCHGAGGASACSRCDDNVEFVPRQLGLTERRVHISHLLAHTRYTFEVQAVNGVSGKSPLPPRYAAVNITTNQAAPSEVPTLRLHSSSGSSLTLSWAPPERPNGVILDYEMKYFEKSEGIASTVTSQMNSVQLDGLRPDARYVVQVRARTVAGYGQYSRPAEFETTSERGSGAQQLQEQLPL
Method: To identify EphB receptor-binding peptides, an M13 phage library (R&D Systems, Minneapolis, Minn.) displaying random 12 amino acid-long peptides was panned on the ectodomains of EphB1, EphB2, or EphB4 fused to human Fc and immobilized on nickel-coated wells through a carboxy-terminal hexahistidine tag (FIG. 1). Phage binding to Ni-NTA wells coated with 1 μg/ml Eph receptor Fe fusion proteins was quantified using an anti-phage antibody conjugated to horseradish peroxidase (M13 phage detection kit, Amersham Biosciences) with 2,2-azino-bis(3-ethylbenzothiazoline-6-sulfonic acid) as a substrate. The background that was subtracted from the measurements was determined without EphB4 Fc. Histidine-tagged EphB ectodomain Fc fusion proteins were incubated overnight at 4° C. in nickel-nitrilotriacetic acid (Ni-NTA)-coated ELISA wells at concentrations of 10 μg/ml in Tris-buffered saline (TBS) (150 mM NaCl, 50 mM Tris-HCl, pH 7.5), except for EphB2 and EphB4 rounds 3.2 and 4, which were with 1 μg/ml. […] Phage recovered after the first round of panning (1*) were not quantified to ensure that rare clones would be recovered.
The binding selectivity of the phage clones for the different mammalian EphB receptors was also determined (Table 1). […]

EWLSPNLAPSVR [compound 1]
EphB Receptor Specificity (% Binding) B6 (EphB6): 0% | EphB Receptor Specificity (% Binding) B3 (EphB3): 1%

Reference: US7999069B2, “EphB receptor-binding peptides” (Sanford-Burnham Medical Research Institute, priority 2005, dated 2011)
